Assay results as given in ChEMBL document CHEMBL2390906, “Synthetic chalcones and sulfonamides as new classes of Yersinia enterocolitica YopH tyrosine phosphatase inhibitors” (Eur J Med Chem, 2013).

Tests used:
[1] = molecular target: Tyrosine-protein phosphatase YopH (Yersinia enterocolitica) (UniProt P15273); assay: Inhibition of Yersinia enterocolitica recombinant YopH using pNPP as substrate at 25 uM after 10 mins by spectrophotometry
[2] = molecular target: T1, Tyrosine-protein phosphatase YopH (Yersinia enterocolitica, UniProt P15273); assay: Inhibition of Yersinia enterocolitica recombinant YopH using pNPP as substrate after 10 mins by spectrophotometry
[3] = molecular target: T1, Tyrosine-protein phosphatase YopH; assay: Competitive inhibition of Yersinia enterocolitica recombinant YopH using pNPP as substrate after 10 mins by Line-weaver Burk plot analysis
[4] = molecular target: T1, Tyrosine-protein phosphatase YopH; assay: Noncompetitive inhibition of Yersinia enterocolitica recombinant YopH using pNPP as substrate after 10 mins by Line-weaver Burk plot analysis

T1 sequence (P15273 whole entry): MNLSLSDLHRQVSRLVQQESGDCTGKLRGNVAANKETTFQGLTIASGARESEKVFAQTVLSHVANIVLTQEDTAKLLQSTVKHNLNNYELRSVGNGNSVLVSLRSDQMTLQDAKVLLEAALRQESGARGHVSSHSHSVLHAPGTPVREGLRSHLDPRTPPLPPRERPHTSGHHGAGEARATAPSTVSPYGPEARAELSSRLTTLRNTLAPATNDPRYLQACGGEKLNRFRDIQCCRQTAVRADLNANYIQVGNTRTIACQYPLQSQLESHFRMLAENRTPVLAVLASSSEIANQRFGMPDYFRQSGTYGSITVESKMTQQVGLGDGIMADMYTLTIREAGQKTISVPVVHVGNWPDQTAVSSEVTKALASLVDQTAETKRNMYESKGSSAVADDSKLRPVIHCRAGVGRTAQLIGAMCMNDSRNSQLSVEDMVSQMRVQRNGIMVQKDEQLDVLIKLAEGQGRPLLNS
Tyrosine-protein phosphatase YopH (Yersinia enterocolitica), sequence (P15273 whole entry): as above

Row | SMILES | inhibition [1] [%] | IC50 [2] [µM] | Ki [3] [µM] | Ki [4] [µM]
1 | CC12C=CC(O1)[C@H]1C(=O)N(c3ccc(S(=O)(=O)N/N=C/c4ccc(Cl)c(Cl)c4)cc3)C(=O)[C@H]12 (stereo not given in full) | 45.6 | 62.2 | – | –
2 | O=C(/C=C/c1ccc2c(c1)OCO2)c1cccc([N+](=O)[O-])c1 | 31.3 | 9.9 | 4.5 | –
3 | O=C(/C=C/c1ccc2ccccc2c1)c1ccc2ccccc2c1 | 66.9 | 20.3 | 14.1 | –
4 | O=C(/C=C/c1ccc(-c2cc(C(F)(F)F)ccc2Cl)o1)c1ccc2c(c1)OCO2 | 33.8 | 38.6 | 11.1 | –
5 | O=C(/C=C/c1cccc2ccccc12)c1ccc2ccccc2c1 | 26.5 | 193 | – | –
6 | O=C(/C=C/c1cc2ccccc2nc1Cl)c1ccc2c(c1)OCO2 | 44.2 | 117 | – | –
7 | O=C(/C=C/c1cccc([N+](=O)[O-])c1)c1ccc2ccccc2c1 | 34.7 | 122 | – | –
8 | O=C(/C=C/c1ccccc1)c1ccc2ccccc2c1 | 30.9 | 246 | – | –
9 | O=C1c2cccc3c(Cl)ccc(c23)C(=O)N1Cc1ccc(S(=O)(=O)N2CCOCC2)cc1 | 82.1 | 15.5 | – | 36
10 | O=C1[C@@H]2C3C=CC(O3)[C@@H]2C(=O)N1c1ccc(S(=O)(=O)N2CCCC2)cc1 | 76.4 | 9 | 4.4 | –
11 | O=C(/C=C/c1ccc2c(c1)OCO2)c1ccc([N+](=O)[O-])cc1 | 65.7 | 15.1 | 4.4 | –
12 | COc1ccc2nc(Cl)c(/C=C/C(=O)c3ccc4ccccc4c3)cc2c1 | 34.6 | 268 | – | –
